Test results as given in patent publication US20180346430A1, “TRIFLUOROACETYL HYDRAZIDE COMPOUNDS AND METHODS OF PREPARATION AND USES THEREOF” (GUANGHOU MAGPIE PHARMACEUTICALS CO., LTD., priority 2014, published 2018).

Key:
[1] = system: Scopolamine-induced memory impairment in mice; experiment: Scopolamine-induced memory impairment in mice, water maze test; assay type: in vivo, Kunming mice; details: for Improvement of scopolamine-induced memory impairment: water maze, **p<0.01 vs scopolamine model group, FIG. 10A, 10B
Method: In this example, Kunming mice were selected and divided into normal control group (Ctrl), Scopolamine group (Sco), Donepezil treatment group (Sco+3 mg/kg donepezil), 1 and 10 mg T-006 treatment group (Sco+1 mg/kg T-006 and Sco+10 mg/kg T-006). Intragastric administration was performed for two weeks, and after the final administration water maze test was conducted for 4 days. Thirty minutes before the test, abdominal injection of scopolamine (1 mg/kg) and model were performed. On day 5, space search test was conducted, and data were expressed as Mean±SD (n=9 per group).

PC12 cells [2] = experiment: Differentiation of PC12 cells into neurons with synapse growth; assay type: cell-based; details: 72 h, **P<0.01 vs control group, FIG. 11
Method: PC12 cells were seeded on 6-well plate and inoculated in a 5% CO2 incubator at 37° C. for 24 hours. Control group was unchanged; NGF control group: serum-free F-12K+50 ng/mL NGF; drug treatment group: serum-free F-12K with different concentrations of T-006. After 72 hours of incubation, picture was taken under an inverted microscope with 5 shoots at random for each hole. If the cell synapse length is more than 2 times the cell, it can be regarded as cell differentiation and synapse formation. […] Compared with the control group, **P<0.01.

PC12 cells [3] = experiment: t-BHP-induced ROS and RNS in PC12 cells (DCF-DA, HFP, DAF-FM, DHR123 probes); assay type: cell-based; details: pre-incubated 2 h, t-BHP 100 μM 6 h; total ROS, hydroxyl radicals, nitric oxide radicals, peroxynitrite; FIG. 14A-14D
Method: PC12 cells were seeded on 6-well plate and inoculated in a 5% CO2 incubator at 37° C. for 24 hours, and then T-006 and TMP (100 M) in different concentration gradients were added to be pre-incubated for 2 hours. Then the medium was aspirated, and 100 μl t-BHP (100 μM) was added to each well except the wells of the control group, and the cells were cultured in an incubator for 6 hours. Consequently, DCF-DA probes, HFP probes, DAF-FM probes and DHR123 probes were added respectively to determine the total ROS, hydroxyl radicals, nitric oxide radicals and peroxynitrite. (A) DCF-DA probe for determining intracellular total ROS. (B) HFP probe for determining intracellular hydroxyl radicals. (C) DAF-FM probe for determining nitric oxide free radicals. (D) DHR123 probe for determining intracellular peroxynitrite. Compared with the control group, ### p<0.001; compared with t-BHP, *p<0.05, **p<0.01 and ***p<0.001.

PC12 cells [4] = experiment: Protective effect on IAA-induced PC12 cell injury (MTT); assay type: cell-based; details: FIG. 3
Method: PC12 cells were seeded on a 96-well plate and inoculated in a 5% CO2 incubator at 37° C. for 24 hours. Then 100 μl of IAA (50 μM) was added for induction for 2 hours. Two hours later, the medium was aspirated, and each of the compounds (T-006, TMP, Edaravone) was added and the cells were cultured for 24 hours. After 24 hours of incubation, MTT was added to each well. Four hours later, the absorbance was measured at 570 nm using a microplate reader. […] Compared with the IAA group, ****P<0.0001.

Cortical neurons [5] = experiment: Protective effect on t-BHP-induced cortical neuronal injury (MTT); assay type: cell-based, SD fetal rat; details: FIG. 6
Method: Cortical neurons of E16-18 days SD fetal rat were seeded on a 96-well plate and inoculated in a 5% CO2 incubator at 37° C. for 8 days. […] The neurons were set to incubator to cultivate for 24 hours, and then MTT was added to each well. Four hours later, the absorbance value was measured at 570 nm using a microplate reader. […] Compared with the t-BHP group, ****P<0.0001.

[6] = system: MEF2 transcription activity in PC12 cells; experiment: MEF2 luciferase reporter assay in stably transfected PC12 cells; assay type: cell-based; details: 24 h incubation, **P<0.01, FIG. 9
Method: The PC12 was transfected by cloning the MEF2 reporter gene pGreenFire1TM-MEF2-EF1 lentivector. Stable transfected PC12 cells, as cultured in a conventional manner, were seeded on a 96-well plate with T-006 added in different concentrations, were incubated for 24 h. The activity was measured by the Luciferase reporter assay kit (Promega, USA). […] Compared with the IAA group, **P<0.01.

[7] = system: Primary cerebellar granule cells; experiment: Protective effect on glutamate-induced cerebellar granule injury (MTT); assay type: cell-based, SD fetal rat; details: pre-incubated 2 h, glutamate 75 μM 24 h, concentration-dependent, **P<0.01 vs glutamate group, FIG. 7
Method: (§1) Primary cerebellar granule cells, extracted from 7-8 day, 15-20 g SD fetal rat, were seeded on a 96-well plate and inoculated in a 5% CO2 incubator at 37° C. for 8 days. On day 8, 90 μL of the compound (T-006) was added with different concentration gradients, then the cells were set to an incubator to cultivate for 2 hours. Then 10 μL of glutamate (final concentration of 75 μM) was added to each well except those of the control group. The cells were set to incubator to cultivate for 24 hours, and then MTT was added to each well. Four hours later, the absorbance value was measured at 570 nm using a microplate reader. […] Compared with the glutamate group, **P<0.01.

Cortical neurons [8] = experiment: Protective effect on IAA-induced cortical neuronal injury (MTT); assay type: cell-based, SD fetal rat; details: FIG. 5
Method: Cortical neurons of E16-18 day SD fetal rat were seeded on a 96-well plate and inoculated in a 5% CO2 incubator at 37° C. for 8 days. On day 8, each of the compounds (T-006, TMP, Edaravone) was added with different concentration gradients, and 50 μl IAA (40 μM) was added to each well except those of the control group. Then the neurons were set to incubator to cultivate for 24 hours, and then MTT was added to each well. Four hours later, the absorbance was measured at 570 nm using a microplate reader. […] Compared with the IAA group, ****P<0.0001.

PC12 cells [9] = experiment: t-BHP-induced apoptosis in PC12 cells (Hoechst staining); assay type: cell-based; details: pre-incubated 2 h, t-BHP 100 μM 24 h, FIG. 13A, 13B
Method: (§2) PC12 cells were seeded on a 96-well plate and inoculated in a 5% CO2 incubator at 37° C. for 24 hours, and then T-006 and TMP (100 M) in different concentration gradients were added to be pre-incubated for 2 hours. Then the medium was aspirated, and 100 μl t-BHP (100 μM) was added to each well except the wells of the control group, and the cells were cultured in an incubator for 24 hours. Hoechst working fluid was added and the number of PC12 cells was observed and counted under fluorescence microscope. […] (B) PC12 cell apoptosis statistics. […] PC12 cells were seeded on a 96-well plate and inoculated in a 5% CO2 incubator at 37° C. for 24 hours, and then T-006 and TMP (100 M) in different concentration gradients were added to be pre-incubated for 2 hours. 2 hours later, 100 μl t-BHP (100 μM) was added to each well except the control group for induction. After completion of the induction, JC-1 working solution was added to each well and mitochondrial membrane potential was monitored and analyzed using flow cytometry. Compared with the control group, ### p<0.001; compared with t-BHP, *p<0.05, **p<0.01 and ***p<0.001.

PC12 cells [10] = experiment: Protective effect on t-BHP-induced PC12 cell injury (MTT); assay type: cell-based; details: FIG. 4
Method: PC12 cells were seeded on a 96-well plate and inoculated in a 5% CO2 incubator at 37° C., for 24 hours. Then each compound (T-006, TMP, Edaravone) was added in different concentration gradients to pre-incubated for 2 hours. Two hours later, the medium was aspirated, and 100 μl t-BHP (100 μM) was added to each well except those of the control group, then the cells were cultured in an incubator for 24 hours. Four hours later, MTT was added into each of the wells, and the absorbance was measured at 570 nm using a microplate reader. […] Compared with t-BHP group, ****P<0.0001.

[11] = system: Primary cerebellar granule cells; experiment: Protective effect on MPP+-induced cerebellar granule injury (MTT); assay type: cell-based, SD fetal rat; details: pre-incubated 2 h, MPP+ 35 μM 24 h, concentration-dependent, **P<0.01 vs MPP+ group, FIG. 8
Method: as §1, with “days,” for “day,”, “MPP^+” for “glutamate”, “35” for “75”

PC12 cells [12] = experiment: t-BHP-induced mitochondrial membrane potential disorder in PC12 cells (JC-1, flow cytometry); assay type: cell-based; details: pre-incubated 2 h, t-BHP 100 μM, FIG. 13C
Method: as §2

[13] = comparison with TMP and Edaravone

Cc1ccc(N(/N=C/c2nc(C)c(C)nc2C)C(=O)C(F)(F)F)c(C)c1 [T-006]
Improvement of scopolamine-induced memory impairment ([1]; 1 mg/kg intragastric for two weeks): significantly improved the memory impairment induced by scopolamine
Improvement of scopolamine-induced memory impairment compared with 3 mg/kg donepezil group ([1]; 10 mg/kg T-006 vs 3 mg/kg donepezil, $p<0.05): significantly better than 3 mg/kg donepezil group
Improvement of scopolamine-induced memory impairment ([1]; 10 mg/kg intragastric for two weeks): significantly improved the memory impairment induced by scopolamine
Differentiation of PC12 cells into neurons, synapse formation and growth (PC12 cells [2]; serum-free F-12K, different concentrations, concentration-dependent): significantly promote differentiation of PC12 cells into neurons, synapse formation and growth
Elevation of ROS and RNS in t-BHP-induced PC12 cells (PC12 cells [3]): Reduced the Elevation of ROS and RNS
Protective effect on IAA-induced PC12 cell injury (PC12 cells [4]; IAA 50 μM 2 h, then compound 24 h, MTT, ****P<0.0001 vs IAA group): significant protective effect
Protective effect on IAA-induced PC12 cell injury compared with TMP and Edaravone (PC12 cells [4]; [13]): much stronger than that of the parent compound TMP and Edaravone
Protective effect on t-BHP-induced cortical neuronal injury (Cortical neurons [5]; 24 h, MTT, ****P<0.0001 vs t-BHP group): significant protective effect
Protective effect on t-BHP-induced cortical neuronal injury compared with TMP and Edaravone (Cortical neurons [5]; [13]): much stronger than that of the parent compound TMP and Edaravone
MEF2 transcriptional activity in PC12 cells [6]: significantly activates ME12 transcriptional activity
Protective effect on glutamate-induced primary cerebellar granule injury [7]: significant protective effect
Protective effect on IAA-induced cortical neuronal injury (Cortical neurons [8]; IAA 40 μM, 24 h, MTT, ****P<0.0001 vs IAA group): significant protective effect
Protective effect on IAA-induced cortical neuronal injury compared with TMP and Edaravone (Cortical neurons [8]; [13]): much stronger than that of the parent compound TMP and Edaravone
t-BHP-induced PC12 cell apoptosis (PC12 cells [9]): reduced t-BHP-induced PC12 cell apoptosis
Protective effect on t-BHP-induced PC12 cell injury compared with TMP or Edaravone (PC12 cells [10]; comparison with TMP or Edaravone): much stronger than that of the parent compound TMP or Edaravone
Protective effect on t-BHP-induced PC12 cell injury (PC12 cells [10]; pre-incubated 2 h, t-BHP 100 μM 24 h, MTT, ****P<0.0001 vs t-BHP group): significant protective effect
Protective effect on MPP+-induced primary cerebellar granule injury [11]: significant protective effect
t-BHP-induced mitochondrial membrane potential disorder in PC12 cells (PC12 cells [12]): improved t-BHP-induced mitochondrial membrane potential disorder

NGF: positive control NGF, 50 ng/mL, in the PC12 differentiation test
Differentiation of PC12 cells into neurons, synapse formation and growth (PC12 cells [2]; serum-free F-12K + 50 ng/mL NGF, positive control): significantly promote differentiation of PC12 cells into neurons, synapse formation and growth

COc1cc2c(cc1OC)C(=O)C(CC1CCN(Cc3ccccc3)CC1)C2 (centres unmarked) [donepezil, reference compound]
Improvement of scopolamine-induced memory impairment ([1]; 3 mg/kg intragastric for two weeks): significantly improved the memory impairment induced by scopolamine
